We go through one compound from publication PMC9149975, “The diaryl-imidazopyridazine anti-plasmodial compound, MMV652103, exhibits anti-breast cancer activity” (EXCLI Journal, 2022).

For orientation: remaining activity means the share of the control activity or signal that is left under treatment. Higher therefore signals much activity left. As a reminder, the IC50 is the concentration that inhibits the measured activity by half.

In one data set the target is T1, PIK3CB/ PIK3R1 (Homo sapiens, UniProt P42338).
T1 construct: purchased Carna Biosciences Inc; Invitrogen Corporation
T1 sequence (P42338 whole entry): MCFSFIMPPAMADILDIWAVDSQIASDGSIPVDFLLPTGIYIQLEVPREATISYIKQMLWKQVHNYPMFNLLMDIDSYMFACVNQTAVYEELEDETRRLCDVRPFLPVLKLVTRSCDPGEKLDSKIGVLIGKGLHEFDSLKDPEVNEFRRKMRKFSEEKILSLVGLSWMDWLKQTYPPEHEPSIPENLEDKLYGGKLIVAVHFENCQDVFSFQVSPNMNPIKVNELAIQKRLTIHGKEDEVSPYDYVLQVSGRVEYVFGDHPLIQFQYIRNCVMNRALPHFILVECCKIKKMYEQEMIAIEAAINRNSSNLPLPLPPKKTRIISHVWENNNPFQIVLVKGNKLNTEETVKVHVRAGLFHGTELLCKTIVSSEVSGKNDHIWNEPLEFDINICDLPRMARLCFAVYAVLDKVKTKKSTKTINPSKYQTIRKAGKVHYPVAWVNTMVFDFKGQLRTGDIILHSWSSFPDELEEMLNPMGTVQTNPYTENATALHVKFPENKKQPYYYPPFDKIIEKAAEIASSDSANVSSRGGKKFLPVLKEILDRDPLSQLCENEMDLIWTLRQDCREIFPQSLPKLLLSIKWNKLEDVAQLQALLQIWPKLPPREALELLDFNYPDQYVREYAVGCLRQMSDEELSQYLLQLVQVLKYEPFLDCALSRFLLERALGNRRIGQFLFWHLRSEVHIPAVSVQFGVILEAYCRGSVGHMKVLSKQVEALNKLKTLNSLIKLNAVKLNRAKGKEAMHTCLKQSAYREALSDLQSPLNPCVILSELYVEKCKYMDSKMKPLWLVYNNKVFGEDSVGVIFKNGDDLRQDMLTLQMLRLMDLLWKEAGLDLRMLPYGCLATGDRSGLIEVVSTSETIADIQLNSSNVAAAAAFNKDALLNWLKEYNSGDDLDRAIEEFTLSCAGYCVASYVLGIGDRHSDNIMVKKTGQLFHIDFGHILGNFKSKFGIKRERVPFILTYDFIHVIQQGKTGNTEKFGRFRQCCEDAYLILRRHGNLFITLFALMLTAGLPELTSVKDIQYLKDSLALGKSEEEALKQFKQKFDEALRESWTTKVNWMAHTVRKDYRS
T1 sequence (P27986 whole entry partner): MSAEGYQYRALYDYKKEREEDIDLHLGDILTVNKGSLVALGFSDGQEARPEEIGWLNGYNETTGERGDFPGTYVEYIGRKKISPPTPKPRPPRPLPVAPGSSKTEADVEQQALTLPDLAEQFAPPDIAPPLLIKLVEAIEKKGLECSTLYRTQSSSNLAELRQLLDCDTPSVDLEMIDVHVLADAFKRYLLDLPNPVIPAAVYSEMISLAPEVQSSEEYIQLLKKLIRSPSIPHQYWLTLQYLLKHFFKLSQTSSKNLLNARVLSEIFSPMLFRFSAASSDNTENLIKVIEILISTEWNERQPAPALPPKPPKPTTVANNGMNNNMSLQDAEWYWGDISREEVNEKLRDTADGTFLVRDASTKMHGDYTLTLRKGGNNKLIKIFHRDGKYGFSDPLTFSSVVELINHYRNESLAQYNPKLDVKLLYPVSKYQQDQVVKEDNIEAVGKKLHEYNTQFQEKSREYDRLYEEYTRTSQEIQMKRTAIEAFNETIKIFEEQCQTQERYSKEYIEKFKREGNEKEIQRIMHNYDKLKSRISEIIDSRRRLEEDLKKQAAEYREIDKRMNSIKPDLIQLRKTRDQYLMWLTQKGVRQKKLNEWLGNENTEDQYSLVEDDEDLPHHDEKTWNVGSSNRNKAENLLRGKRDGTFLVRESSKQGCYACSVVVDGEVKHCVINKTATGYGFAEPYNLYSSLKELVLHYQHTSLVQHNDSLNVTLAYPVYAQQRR
Description: ADP-Glo lipid kinase assay, PIK3CB/PIK3R1. Type of data set: biochemical. The following applies: 10 µM compound. A general note: In ADP-Glo the light output rises with the ADP produced.

A short description of data set [1]: Solubility in DMSO at 10 mM. Type of data set: physicochemical. The note with it: final concentration 10 mM.
Another data set concerns the target T2, PIK3CA/ PIK3R1 (Homo sapiens, UniProt P42336).
T2 construct: purchased Carna Biosciences Inc; Invitrogen Corporation
Kind of data set: ADP-Glo lipid kinase assay, PIK3CA/PIK3R1. The data set is classed as biochemical. The note with it: 10 µM compound.

For data set [2], the system named is T47D (ER+) breast cancer cells. Description: MTT cytotoxicity assay, T47D. Type of data set: cell-based, human. The following applies: for IC50: Homo sapiens, T47D. From the text:
Human estrogen-receptor positive (ER+) breast adenocarcinoma cell lines, MCF7 and T47D, were maintained in Roswell Park Memorial Institute-1640 medium (Sigma Aldrich, Missouri, USA) and the human epidermal growth factor receptor 2 positive (HER2+) BT474, and triple negative (TNBC) MDA-MB-231 and MDA-MB-468 cells were maintained in Dulbecco's Modified Eagle's Medium (DMEM) (Sigma Aldrich, Missouri, USA). FG0 human skin fibroblasts (provided by Associate Professor Denver Hendricks, University of Cape Town) were maintained in DMEM while the normal breast epithelial cell line MCF12A was maintained in DMEM:nutrient mixture F-12 (DMEM/F12; 1:1; Sigma Aldrich, Missouri, USA), supplemented with 20 ng/ml epidermal growth factor, 100 ng/ml cholera toxin, 500 ng/ml hydrocortisone and 10 µg/ml insulin. All media were supplemented with 10 % fetal bovine serum, 100 U/ml penicillin and 100 µg/ml streptomycin. Cells were maintained at 37 °C in a 5 % CO2 and 95 % air-humidified incubator. Media was replaced every 2-3 days and cells were routinely tested for mycoplasma infection.
(§1) Cells (3.5×10^3-6×10^3 / well) were seeded in 96-well plates and treated at a 60-70 % confluence with a range of concentrations (0-10 μM) of test compounds or vehicle for 48 h. Cell viability was measured using the 3-(4,5-dimethylthiazol-2-yl)-2,5-diphenyl-trazolium bromide (MTT) assay (11465007001; Sigma Aldrich) according to the manufacturer's instructions. Mean cell viability was calculated as a percentage of the mean vehicle control. A minimum of three independent experiments in quadruplicate were performed from which the IC50 was determined from sigmoidal plots using GraphPad Prism version 6.0 (GraphPad Software, California, USA). The selectivity index (SI) was determined by dividing the IC50 of a non-malignant cell line by the IC50 of a cancer cell line.
Background: Tetrazolium dyes change colour on reduction, which living cells bring about.

For data set [3], the system named is MDA-MB-231 (TNBC) breast cancer cells. Kind of data set: MTT cytotoxicity assay, MDA-MB-231. The data set is classed as cell-based. The following applies: Homo sapiens. Here is the method:
Human estrogen-receptor positive (ER+) breast adenocarcinoma cell lines, MCF7 and T47D, were maintained in Roswell Park Memorial Institute-1640 medium (Sigma Aldrich, Missouri, USA) and the human epidermal growth factor receptor 2 positive (HER2+) BT474, and triple negative (TNBC) MDA-MB-231 and MDA-MB-468 cells were maintained in Dulbecco's Modified Eagle's Medium (DMEM) (Sigma Aldrich, Missouri, USA). […]
as §1

Data set [4] deals with MCF7 cells. Description: Western blotting / immunofluorescence, MCF7. The data set is classed as cell-based, human. The procedure:
Cells were exposed to MMV652103 or vehicle for 24 and 48 h. Cell lysates were prepared, and western blotting performed as previously described (Abrahams et al., 2008[1]). Primary antibodies were: PARP1/2 (sc-7150, 1:1000), p53 (sc-126, 1:1000), p21 (sc-756, 1:1000), cyclin B1 (H-433) (sc-752, 1:500) from Santa Cruz (California, USA), phospho-H2AX (#2577, 1:1000), phospho-p38 MAP Kinase (#9211, 1:1000), LC3 (#2775, 1:1000), caspase-7 (#9492, 1:1000), caspase-8 (#9746, 1:1000), caspase-9 (#9502S, 1:1000), from Cell Signaling (Boston, MA, USA), PUMA (ab9643, 1:1000) (AbCam, Cambridge, MA, USA) and p38 (M0800, 1:5000) from Sigma (St. Louis, MO, USA). Total p38 was used as a loading control because although its activity is modulated by phosphorylation, its total levels remain unaltered in response to stimuli (Raingeaud et al., 1995[68]). Densitometry readings were obtained using ImageJ v1.50i58 and protein expression levels were represented as a ratio of protein of interest/p38 loading control normalized to the vehicle treated control sample where appropriate. All blots are representative of at least three independent experiments.
Cells on glass coverslips were treated with either MMV652103 or vehicle for 24 and 48 h and processed for immunofluorescence with antibodies against phospho H2A.X (#2577) (1:500) or LC3B (#2775) (1:200) (Cell Signaling Technology) as previously described (Bleloch et al., 2019[8]). Cells were imaged using confocal microscopy (Carl Zeiss LSM 880 with Fast Airyscan module confocal (Oberkochen, Germany)). Multiple z layers were acquired with […] step width. Images were processed using ZEN 2012 imaging software (Carl Zeiss) and maximum intensity projections were generated. For quantification, mean fluorescence was measured from at least 20 fields of view per treatment condition and pooled from three independent replicates.
On the technique in general: Immunoblotting shows a protein as a band on a membrane.

Data set [5] concerns MCF7 cells. Description: Cell cycle analysis by flow cytometry. The data set is classed as cell-based, human. The note with it: IC50, 24 and 48 h. The procedure:
Log-phase MCF7 cells were exposed to MMV652103 for 24 and 48 h and both adherent and floating cells were collected, processed as previously described and analyzed using a Becton Dickinson FACSCalibur flow cytometer (Becton Dickinson, New Jersey, USA) with a 488 nm coherent laser (Bleloch et al., 2019[8]). The data were acquired using CellQuest Pro version 5.2.1. software (Becton Dickinson) and the analyses were done using ModFit version 2.0. software (Verity Software House Inc, Maine, USA).

Read-outs that look alike come from different tables or passages of the source.

T2 sequence (P42336 whole entry): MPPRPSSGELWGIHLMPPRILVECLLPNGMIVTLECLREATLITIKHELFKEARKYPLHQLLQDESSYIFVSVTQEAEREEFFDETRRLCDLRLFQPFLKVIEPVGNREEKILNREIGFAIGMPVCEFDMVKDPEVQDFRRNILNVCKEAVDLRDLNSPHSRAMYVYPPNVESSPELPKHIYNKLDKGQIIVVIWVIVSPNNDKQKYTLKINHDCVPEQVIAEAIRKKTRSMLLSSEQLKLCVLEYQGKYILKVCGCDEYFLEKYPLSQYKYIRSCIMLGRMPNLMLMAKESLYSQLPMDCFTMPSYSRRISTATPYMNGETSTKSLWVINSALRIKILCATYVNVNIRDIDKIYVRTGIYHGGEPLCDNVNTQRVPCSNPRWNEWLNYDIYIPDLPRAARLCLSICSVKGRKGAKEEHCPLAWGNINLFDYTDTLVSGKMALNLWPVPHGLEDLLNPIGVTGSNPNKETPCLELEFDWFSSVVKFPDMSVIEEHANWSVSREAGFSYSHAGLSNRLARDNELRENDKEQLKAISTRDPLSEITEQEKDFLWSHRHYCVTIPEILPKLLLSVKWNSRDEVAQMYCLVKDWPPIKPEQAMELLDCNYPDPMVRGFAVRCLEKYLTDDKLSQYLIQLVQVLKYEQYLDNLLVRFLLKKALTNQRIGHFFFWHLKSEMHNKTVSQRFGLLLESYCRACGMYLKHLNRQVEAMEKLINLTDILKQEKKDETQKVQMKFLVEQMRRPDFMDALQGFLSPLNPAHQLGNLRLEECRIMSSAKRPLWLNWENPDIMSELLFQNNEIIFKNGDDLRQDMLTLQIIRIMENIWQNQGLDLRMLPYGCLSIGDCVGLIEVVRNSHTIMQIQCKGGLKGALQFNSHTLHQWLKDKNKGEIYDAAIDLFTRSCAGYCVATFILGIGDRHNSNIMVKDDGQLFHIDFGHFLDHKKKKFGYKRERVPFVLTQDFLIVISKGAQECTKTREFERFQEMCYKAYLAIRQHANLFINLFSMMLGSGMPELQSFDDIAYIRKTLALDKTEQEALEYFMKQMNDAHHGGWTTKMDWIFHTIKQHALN
T2 sequence (P27986 whole entry partner): as the sequence (P27986 whole entry partner) above

For the compound `CS(=O)(=O)c1ccc(-c2cnc3ccc(-c4cccc(S(C)(=O)=O)c4)nn23)cc1` [MMV652103], the remaining activity at 10 µM came out at 19% at PIK3CB/ PIK3R1 and 3% at PIK3CA/ PIK3R1. Besides, the “Solubility (DMSO)” value in data set [1] was “soluble in DMSO”; in data set [1] (listed as 652103), “Successful”. Further, the half-inhibitory concentration (IC50) in data set [2] (Fig 2C summary, MTT 48 h, read-out: IC50 ± SEM T47D) amounted to 2900 ± 1100 nM; in data set [2] (MTT, 48 h, read-out: IC50 T47D) it was 2900 nM; in data set [3] (Fig 2C summary, MTT 48 h, read-out: IC50 ± SEM MDA-MB-231) it was 14.3 ± 1.03 µM; in data set [3] (MTT, 48 h, read-out: IC50 MDA-MB-231), 14.3 µM. In addition, the “SI FG0 (T47D)” value in data set [2] (IC50 FG0 / IC50 T47D) is listed as over 2. The “LC3 to LC3II conversion” value in the data set on MCF7 cells [4] (western blot) is “led to the conversion of LC3 to LC3II”. The “cyclin A and cyclin B1 levels” value with MCF7 cells [4] (western blot) is on record as “reduced”. In the data set with MCF7 cells [4] (western blot), the “levels of p53, MCF7” value is “dose- and time-dependent increase”. Also, in the data set with MCF7 cells [4] (western blot), the “levels of phosphorylated p38, MCF7” value is given as “increased”. For the same compound, the “p21 levels, MCF7” value with MCF7 cells [4] (western blot) is “increased”. For the same compound, in the data set on MCF7 cells [4] (½ IC50 and IC50, 24 and 48 h), the “levels of γH2AX, MCF7” value is “dose- and time-dependent increase”. Further, in the data set on MCF7 cells [4] (½ IC50 and IC50, western blot), the “levels of PUMA, cleaved caspase-8, caspase-9, caspase-7 and PARP” value is listed as “increased levels”. Also, the “effect on MCF7 cell cycle progression” value in the data set with MCF7 cells [5] is “induced sub-G1 peaks and arrested cells in G1”.
